These results are taken from US20240010616A1, “SIPONIMOD SALTS AND COCRYSTALS” (Synthon B.V., priority 2020, published 2024).

“Also recorded” adds a separate entry of the source.

Series [1] is described as follows: Water activity measured by DVS (weight difference between 0 and 90% relative humidity). As to conditions: 25° C., 0-90-0% relative humidity, step 10%; compared with prior art Siponimod Fumarate (1:0.5), Form A. It is filed as physicochemical. Here is the method: Water activity of the prior art form and solid forms of presented invention was measured: DVS machine ProUmid SPX-1μ Advance, 25° C., 0-90-0% relative humidity, step 10%, maximal time per step 10 hours. Equilibrium bandwidth 0.05%/60 minutes.
Water activity: a difference between the weights of the sample in 0 and 90% of relative humidity at a constant temperature. It corresponds to the amount of water taken by the tested compound when the humidity changes from 0 to 90% at a constant temperature. The higher water activity the more water can be taken by the compound and that might result in lower purity of the compound because hydrolysis impurities can be formed.

The nature of series [2]: Comparison of crystals (SEM pictures): crystal size and proneness to charging. It is filed as physicochemical. Conditions: compared with prior art fumarate salt; for Proneness of crystals to charging: relates to processability into final forms (tablets); for Crystal size: crystals depicted in FIGS. 17 to 28. Here is the method:
• DCS patterns were obtained using the following conditions: 10° C./min->250° C. • Pictures of crystals were obtained by SEM Jeol JCM-6000. • Nuclear magnetic resonance spectroscopy (NMR) was performed using Avance III 400 MHz NMR spectrometer.
Prior art fumarate salt was prepared according to procedure described in WO2010/080409. In FIGS. 17 to 22 the crystals of prior art salt (FIG. 22) and crystals of salts of the presented invention (FIGS. 17 to 21) are depicted.
The crystals of solid Form 11 of cocrystal of Siponimod with adipic acid (2:1) are depicted in FIGS. 25 to 27. The crystal of Siponimod fumarate, Form A, are depicted in FIG. 28.

`CCc1cc(/C(C)=N/OCc2ccc(C3CCCCC3)c(C(F)(F)F)c2)ccc1CN1CC(C(=O)O)C1.CCc1cc(/C(C)=N/OCc2ccc(C3CCCCC3)c(C(F)(F)F)c2)ccc1CN1CC(C(=O)O)C1.O=C(O)CCCCC(=O)O` [Form 11]: the Water activity result in series [1] is “lower water activity than Siponimod fumarate, Form A; also recorded: better comparing to prior art forms”. Further, in series [2], the “Proneness of crystals to charging” value is “less prone to charging” and the Crystal size result is “much bigger than crystals of Form A”.
On to `CCc1cc(/C(C)=N/OCc2ccc(C3CCCCC3)c(C(F)(F)F)c2)ccc1CN1CC(C(=O)O)C1.CCc1cc(/C(C)=N/OCc2ccc(C3CCCCC3)c(C(F)(F)F)c2)ccc1CN1CC(C(=O)O)C1.O=C(O)/C=C/C(=O)O` [Prior art fumarate salt, reference compound], for which, in series [2], the “Proneness of crystals to charging” value is on record as “prone to charging” and the Crystal size entry was “small crystals”.
